Data set [1] can be described thus: Stability in cell medium. The settings on record: cell medium in Krebs-Henseleit buffer, 37°C. Format: in vitro ADME. On the procedure:
(§1) In vitro chemical and metabolic stability was determined in cell medium and human plasma, respectively, using previously described procedures. In brief, 100 μg of peptide was incubated in Krebs-Henseleit buffer pH 7.4 with cell medium/plasma (500 μl) at 37°C while shaking. […] The enzyme reaction was further stopped by heating the solution at 95°C for 5 minutes. Next, the samples were centrifuged to precipitate the denatured proteins and the supernatant analyzed using UPLC-PDA. Appropriate placebo solutions were similarly prepared. Assuming first-order kinetics, the rate constant k was obtained from ln(Pt/Pt0) = -kt, from which the half-life was determined as t1/2 = ln(2)/k.

The nature of data set [2]: in vitro. The following applies: human, Caco-2.
Data set [3] is described as follows: Stability in human plasma. Format: in vitro ADME. The settings on record: human plasma in Krebs-Henseleit buffer. How it is done:
as §1

Data set [4] concerns Caco-2 monolayer. Briefly: Caco-2 permeability assay. The settings on record: for intestinal permeability (in words): Caco-2 monolayer, 10 μM in HBSS. A general note: Caco-2 monolayers are a common model of the intestinal barrier.
Data set [5] has as its system MCF-7/AZ cells. Briefly: Collagen type I invasion assay. In kind it is cell-based, human. The settings on record: 24 hours post-treatment; 1 μM, 100 nM and 10 nM; positive if collagen-invasion or cell-stretching at minimum 2 consecutive concentrations; n = 3.
Experimental: Morphology changes of MCF-7/AZ cells were investigated using previously described methods [12]. […] Peptide solutions (S1 Table) (> 80% purity; all from GL Biochem, Shanghai, China) were prepared using ultrapure water and DMSO, obtaining final peptide concentrations of 1 μM (maximum 0.05% DMSO), 100 nM and 10 nM after 1:10 dilution using growth medium. […] To quantify these visual results, the number of cells containing invasive extensions were counted and compared to the total number of cells in the field.
The mark [6] stands for this setting: Krebs-Henseleit buffer pH 7.4 with cell medium, 0, 6 and 24 hours, first-order kinetics, read-out: Cell medium half-life (converted).
The mark [7] stands for this setting: human, pH 7.4, human plasma, Krebs-Henseleit buffer pH 7.4, 37°C, 0, 30 and 120 minutes, first-order kinetics, read-out: Plasma half-life (converted).
[8] abbreviates: human, pH 7.4, footnote a, human plasma, 37°C, sampled up to 120 minutes, read-out: calculated half-life in plasma.

Ends that are not written are not given here. Peptide text beside a SMILES is read from it.

In the case of `NC(=O)C[C@H](NC(=O)[C@H](Cc1c[nH]c2ccccc12)NC(=O)[C@@H](N)CC(N)=O)C(=O)O` [EDF-analogue, NWN] (H-Asn-Trp-Asn-OH; N-terminus and C-terminus assumed), the half-life is 42 h in data set [1] (setting [6]) and 4.47 h in data set [3] (setting [7]). In addition, the Papp A→B at 120 min, 10 μM in data set [2] was 1.41 nm/s. For the same molecule, the efflux ratio at 120 min, 10 μM in data set [2] is 1.1. In data set [4] (10 μM peptide plus dipeptide LY (10 μM)), the “efflux ratio change using the PepT1 substrate LY” value is listed as “doubled”. The “intestinal permeability (in words)” value in data set [4] is listed as “can pass the intestinal barrier”; in data set [4] (listed as NWN), “low intestinal permeability kinetics”. Besides, the “absorption in humans (in vivo) corresponding to in vitro Papp values” in data set [4] (in vivo-in vitro correlation studies ref 15, 33) was 5–10%.
Consider ARNQT [PhrA], for which the “tumour cell invasion through a type I collagen extracellular matrix (morphology scoring)” value in data set [5] is “did not induce invasive characteristics”.
As to EKMIG [PhrG, EKMIG], the half-life in data set [1] (pH 7.4, Krebs-Henseleit buffer pH 7.4 with cell medium, 0, 6 and 24 hours, first-order kinetics, read-out: Cell medium half-life (converted)) is 160 h; in data set [1] (pH 7.4, footnote a, sampled up to 24 hours, read-out: calculated half-life in cell medium), 158 h; in data set [3] (setting [8]) it was 13.2 h; in data set [3] (setting [7]) it was over 13 h. The Papp A→B at 120 min, 10 μM in data set [2] is under 0.069 nm/s. In data set [2], this molecule yielded a Papp B→A at 120 min, 10 μM of 0.137 nm/s. Further, the “intestinal permeability (in words)” value in data set [4] was “does not show any absorption from the intestinal lumen”.
For the molecule EMRKSNNNFFHFLRRI [CSP], the half-life was 45.8 h in data set [1] (setting [6]); 8.73 h in data set [3] (human plasma, Krebs-Henseleit buffer pH 7.4, 37°C, 0, 30 and 120 minutes, first-order kinetics, read-out: Plasma half-life (converted)).
Turning to NNWNN [EDF, NNWNN], the half-life is 16.2 h in data set [1] (setting [6]), 13.2 h in data set [3] (setting [8]) and over 13 h in data set [3] (setting [7]). In addition, in data set [2], the Papp at 120 min, 10 μM is under 0.029 nm/s. Moreover, the “intestinal permeability (in words)” value in data set [4] is reported as “impermeable”.

As a reminder, the half-life is how long it takes for the measured level to halve. The term Papp A→B denotes how fast a substance crosses the layer from the apical side. Low readings indicate slow passage, high ones fast passage. A word on the efflux ratio: it is the permeability from basolateral to apical divided by that in the opposite direction, in the common usage. As usually defined, the Papp B→A is how fast a substance crosses the layer from the basolateral side. As usually defined, the Papp is a coefficient for how fast a substance crosses the barrier.

The values above are taken from paper PMC4363635 (PLoS ONE, 2015).
